From PubChem BioAssay (NCI)
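Test compounds were applied to cells in 96-well plates for 48 hours at 5 doses. GI50 = concentration required for 50% inhibition of growth. Definition used: TGI = concentration required for complete inhibition of growth.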 *1 amine or outer side, *2 acyl side, *3 side chain or, on linkers, in order; H or OH if unused. Where a SMILES comes first, the peptide text is derived from it. [ ]: non-standard residue; d: D form. The star is where a group is joined. ξ: configuration not given here. X15 = CCN(CC)c1ccc2cc(N*)c(=O)oc2c1; dIva = CC[C@@](C)(N)C(=O)O; X14 = O=C(OCCN[*:1])[*:2]; Aib = CC(C)(N)C(=O)O; ξP = O=C(O)C1CCCN1; βAla = NCCC(=O)O

Assays:
Experiment in all cases: NCI-60 cell line screen, 48 h
HOP-62 NSCLC = system: HOP-62 NSCLC
NCI-H23 lung = system: NCI-H23 lung
TK-10 renal = system: TK-10 renal
LOX IMVI melanoma = system: LOX IMVI melanoma
IGROV1 ovarian = system: IGROV1 ovarian
MCF7 breast = system: MCF7 breast
OVCAR-5 ovarian = system: OVCAR-5 ovarian
HOP-92 NSCLC = system: HOP-92 NSCLC
MALME-3M melanoma = system: MALME-3M melanoma
OVCAR-4 ovarian = system: OVCAR-4 ovarian

Compound | GI50 (HOP-62 NSCLC) [µM] | TGI (HOP-62 NSCLC) [µM] | GI50 (NCI-H23 lung) [µM] | TGI (NCI-H23 lung) [µM] | GI50 (TK-10 renal) [µM] | TGI (TK-10 renal) [µM] | GI50 (LOX IMVI melanoma) [µM] | TGI (LOX IMVI melanoma) [µM] | GI50 (IGROV1 ovarian) [µM] | TGI (IGROV1 ovarian) [µM] | GI50 (MCF7 breast) [µM] | TGI (MCF7 breast) [µM] | GI50 (OVCAR-5 ovarian) [µM] | TGI (OVCAR-5 ovarian) [µM] | GI50 (HOP-92 NSCLC) [µM] | TGI (HOP-92 NSCLC) [µM] | TGI (MALME-3M melanoma) [µM] | TGI (OVCAR-4 ovarian) [µM] | GI50 (MALME-3M melanoma) [µM] | GI50 (OVCAR-4 ovarian) [µM]
Cc1cn2c(/C=N/Nc3ccccn3)c(-c3ccc(Cl)c([N+](=O)[O-])c3)nc2s1 | 10.7 | 18.9 | 10.9 | 27.2 | 15.3 | 47.3 | 8.03 | 16.5 | 5.62 | 21.8 | 3.27 | > 50 | 11.8 | 39.5 | 12.9 | > 50 |  |  |  | 
COC(=O)C1=C(C(=O)OC)SC(=C(N=Nc2ccccc2)c2ccccc2)S1 |  | > 100 |  | > 100 |  | > 100 |  | > 100 |  | > 100 |  |  |  | > 100 |  | > 100 | > 100 | > 100 |  | 
CCN(CC)CC(C(=O)Nc1c(C)cccc1C)/C(C)=N\NC(=O)c1ccncc1 (centres undefined) |  | > 100 |  | > 100 |  | > 100 |  | > 100 |  | > 100 |  |  |  | > 100 |  | > 100 | > 100 | > 100 |  | 
CCC(/C=C/c1ccccc1)=N\Nc1ccc(Cl)c(Cl)c1 |  | > 100 |  | > 100 |  | > 100 |  | > 100 |  | 37.5 |  | > 100 |  | > 100 |  | 58.2 | 78.9 |  |  | 
CCCOc1nc(SCCC)nc2c1cnn2-c1ccccc1 | > 100 | > 100 | > 100 | > 100 |  |  | > 100 | > 100 | > 100 | > 100 | > 100 | > 100 | > 100 | > 100 | 2.93 | > 100 | > 100 | > 100 | > 100 | > 100
O=c1[nH]c(-c2ccc(-c3nc4cc([N+](=O)[O-])ccc4c(=O)[nH]3)cc2)nc2cc([N+](=O)[O-])ccc12 |  | > 100 |  | > 100 |  | > 100 |  | > 100 |  | > 100 |  |  |  | > 100 |  | > 100 | > 100 | > 100 |  | 
Cc1c(Cl)cccc1NC1=C(Cl)C(=O)N(Cc2ccccc2)C1=O | 7.65 | 20.4 | 10.8 | 22.7 | 2.87 | 15.3 | 4.83 | 47.8 | 19.7 | 56.5 | 25.3 | 59 | 17.6 | 31.5 | 1.56 | 14.9 |  | 34 |  | 15.5
CCN(CC)c1ccc2cc(NC(=O)OCCNC(=O)CCNC(=O)[C@H](CC(C)C)NC(=O)C(C)(C)NC(=O)C(C)(C)NC(=O)[C@H](CC(C)C)NC(=O)CCNC(=O)C(C)(C)NC(=O)[C@H](CC(C)C)NC(=O)CCNC(=O)[C@@](C)(CC)NC(=O)[C@H](C)NC(=O)CCNC(=O)C(C)(C)NC(=O)[C@H](C)NC(=O)[C@@H]3CCCN3C(=O)[C@@](C)(CC)NC(=O)[C@H](Cc3ccccc3)NC(=O)C3CCCN3C(=O)C(C)(C)NC(=O)C3CCCN3C(=O)C(C)(C)NC(C)=O)c(=O)oc2c1 (some centres undefined) (Ac-[Aib][ξP][Aib][ξP]F[dIva]PA[Aib][βAla]A[dIva][βAla]L[Aib][βAla]L[Aib][Aib]L[βAla][X14]-X15) | 0.00385 | 0.021 | 0.00347 | 0.014 | 0.0142 | 0.079 | 0.00192 | 0.00384 |  |  | 0.00313 | 0.0286 | 0.00506 | 0.116 | 0.0256 | 0.0709 | 0.00597 | 0.0439 | 0.0021 | 0.00347
S=C(Nc1cc(Cl)c(Cl)cc1Cl)SCc1ccccc1 |  | 56 |  | 45.3 |  | 53.8 |  |  |  | > 100 |  | > 100 |  | 46.5 |  | 75.8 | 59.3 | 65.3 |  | 
Nc1cc(N)c2nc(-c3ccccc3)c(NCc3ccc(F)cc3)nc2c1 | 39.1 | > 100 | 2.38 | 4.6 | 5.83 | 19.8 | 1.52 | 3.17 | 3.11 | > 100 | 2.99 | > 100 | 2.62 | 7.61 | 3.32 | 6.91 |  | 8.08 |  | 1.69
CC(=O)O[C@H]1CC[C@@]2(C)[C@@H](CC[C@@H]3[C@@H]2CC[C@]2(C)C=C(C=O)C[C@@H]32)C1 | 10.5 | 23.1 | 10.5 | 31.1 |  |  | 1.75 | 3.54 | 3.73 | 14.6 | 2.58 | 10.8 | 13.2 | 34.4 |  |  | 12.6 | 13.8 | 3.64 | 3.48
CCOC(=O)C1=C(Nc2cccc3ccccc23)OC/C1=N\NC(=O)c1ccccc1O |  | > 100 |  | 15.3 |  | > 100 |  | > 72.5 |  | 29.8 |  |  |  | > 100 |  | 46.1 | > 100 | > 59.1 |  | 
CCCCCCCOc1c(OC)cc(C2CC(=O)Nc3c2c(C)nn3-c2nc3ccccc3[nH]2)cc1OC (centres undefined) | 3.09 | 14.2 | 2.95 | 9.96 | 3.12 | > 100 | 2.12 | 4.51 | 2.74 | 10.1 | 2.91 | > 100 | 4.39 | > 100 | 2.34 | 7.68 |  |  |  | 
CCOC(=O)c1nc(Nc2ccc(Cl)cc2)c2ccccc2n1 | 16.4 | > 50 | 10.7 | 18.9 | 8.11 | 19.3 | 9.92 | 18.6 | 10.7 | 26 | 13.6 | > 50 | 10.7 | 22.3 | 9.49 | 26.8 |  | 47.9 |  | 11.3
O=C1CCC2(c3ccccc3)Nc3ncccc3N12 (centres undefined) |  | > 100 |  | > 100 |  | > 100 |  | > 100 |  | > 100 |  |  |  | > 100 |  | > 100 | > 100 | > 100 |  | 
CC12CC(OC(=O)[C@]1(C)O)[C@@H]([C@]1(O)CC[C@H]3[C@@H]4C[C@H]5O[C@]56[C@@H](O)C=CC(=O)[C@]6(C)[C@H]4CC[C@@]31C)C2 (some centres undefined) |  | > 100 |  | 14.4 |  | 20.2 |  | 15.9 |  | 35.1 |  | 17.2 |  | 25.2 |  | 8.08 |  | 24.4 |  | 
COC(=O)C1=C(O)c2cc3c(cc2[C@H](c2cc(OC)c(OC)c(OC)c2)C1C(=O)OC)OCO3 (some centres undefined) |  | > 100 |  | > 100 |  | 89.5 |  | > 100 |  | > 100 |  |  |  | > 100 |  | > 100 | 87.3 | 83 |  | 
